According to patent US7786171B2, “Amide derivatives as positive allosteric modulators and methods of use thereof” (Abbott Laboratories, priority 2008, dated 2010):

What was measured:
human α7 NNR = molecular target: T1, human α7 NNR (Homo sapiens, UniProt P36544); assay: Two-electrode voltage-clamp in Xenopus laevis oocytes, potentiation of ACh-evoked α7 currents; assay type: cell-based; conditions: for Voltage-Clamp in Xenopus laevis Oocytes % max (degree of normalized potentiation): 0.1 mM ACh, normalized to reference PAM at 10 μM = 100%, ACh alone = 0%; for EC50: potentiation of 0.1 mM ACh-evoked α7 currents
T1 construct: expressed in transfected cells; host or cells: Xenopus laevis oocytes (cRNA injection)
T1 sequence (P36544 23-502): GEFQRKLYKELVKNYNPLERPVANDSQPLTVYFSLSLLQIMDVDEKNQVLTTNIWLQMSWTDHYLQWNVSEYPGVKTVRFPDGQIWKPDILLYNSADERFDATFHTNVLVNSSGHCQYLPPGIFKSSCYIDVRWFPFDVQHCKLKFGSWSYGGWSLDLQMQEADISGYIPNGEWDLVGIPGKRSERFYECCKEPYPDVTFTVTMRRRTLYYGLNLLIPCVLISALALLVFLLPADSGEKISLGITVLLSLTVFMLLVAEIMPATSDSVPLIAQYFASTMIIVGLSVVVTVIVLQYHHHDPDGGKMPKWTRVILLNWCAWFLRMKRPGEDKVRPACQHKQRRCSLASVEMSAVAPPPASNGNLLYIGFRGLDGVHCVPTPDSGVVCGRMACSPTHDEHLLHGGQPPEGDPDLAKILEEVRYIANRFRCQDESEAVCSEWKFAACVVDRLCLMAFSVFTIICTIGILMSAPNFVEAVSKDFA
Experimental: X. laevis oocytes were prepared for electrophysiological experiments as described in the literature (see for example. Briggs, C. A. el al, Neuropharmacology. 1995. 34: 583-590; Briggs, C. A. et al., Neuropharmacology, 1998, 37: 1095-1102, which are incorporated herein by reference). In brief, three to four lobes from ovaries of female adult X. laevis frogs were removed and defolliculated after treatment with collagenase type 1A (2 mg/mL; Sigma) prepared in low-Ca^2+ Barth's solution (90 mM NaCl, 1.0 mM KCl, 0.66 mM NaNO3, 2.4 mM NaHCO3, 10 mM HEPES, 2.5 mM sodium pyruvate, 0.82 mM MgCl2, and 0.5% (v/v) penicillin-streptomycin solution, pH=7.55, Sigma) for about 1.5 hours to about 2 hours at about 18° C. under constant agitation to obtain isolated oocytes.
The isolated oocytes were injected with about 4 ng to about 6 ng of human α7 NNR cRNA, kept at about 18° C. in a humidified incubator in modified Barth's solution (90 mM NaCl, 1.0 mM KCl, 0.66 mM NaNO3, 2.4 mM NaHCO3, 10 mM HEPES, 2.5 mM sodium pyruvate, 0.74 mM CaCl2, 0.82 mM MgCl2, 0.5% (v/v) penicillin-streptomycin solution, pH 7.55) and used about 2 to 7 days after injection. Responses were measured by two-electrode voltage clamp using a Parallel Oocyte Electrophysiology Test Station (Abbott, Abbott Park, Ill.) (see for example, Trumbull, J. D., et al., Receptors Channels, 2003, 9: 19-28, which is incorporated herein by reference). During recordings, the oocytes were bathed in Ba^2+-OR2 solution (90 mM NaCl, 2.5 mM KCl, 2.5 mM BaCl2, 1.0 mM MgCl2, 5.0 mM HEPES, and 0.0005 mM atropine, pH 7.4) to prevent activation of Ca^2+-dependent currents and held at −60 mV at room temperature (about 20° C.). Test compounds were pre-applied alone for […] and subsequently in the presence of 0.1 mM acetylcholine (ACh) as the agonist. The data were expressed as percentage potentiation of the acetylcholine-evoked current normalized to the response of reference PAM (at 10 μM, N′-[(2Z)-3-(2,2-difluoro-1,3-benzodioxol-5-yl)-5-methyl-1,3-thiazol-2(3 H)-ylidene]-N,N-dimethylurea) taken as 100% and the response to submaximum ACh without any PAM as 0%.

σ1 receptors = molecular target: T2, σ1 receptors (Homo sapiens, UniProt Q99720); assay: Sigma receptor binding assay, σ1 ([3H](+)pentazocine displacement, Jurkat cells); conditions: test compound 10 μM
T2 construct: The origin of the (σ1 and σ2 receptors were Jurkat cells and rat cerebral cortex, respectively); endogenous in cells; host or cells: Jurkat cells
T2 sequence (Q99720 whole entry): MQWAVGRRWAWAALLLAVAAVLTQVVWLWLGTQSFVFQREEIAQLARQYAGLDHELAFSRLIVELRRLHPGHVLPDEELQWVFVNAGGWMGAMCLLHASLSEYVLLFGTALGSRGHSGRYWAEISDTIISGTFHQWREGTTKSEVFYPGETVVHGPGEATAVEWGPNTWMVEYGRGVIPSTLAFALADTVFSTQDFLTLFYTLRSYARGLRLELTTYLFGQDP
Experimental: (§1) Sigma receptors are binding sites that interact with several psychoactive agents. Inhibition of specific binding of known ligands to sigma receptors (σ1 and σ2) was used to determine the selectivity of test compounds. The assays were performed as described previously in the literature (non-selective σ: Shirayama, Y., et al. Eur. J. Pharmacol. (1993), 237: 117-126. σ1: Ganapathy, M. E., et al. J. Pharmacol. Exp. Ther. (1999) 289: 251-260. σ2: Bowen, M. D., et al. Mol. Neuropharmacol. (1993) 3: 117-126.). The origin of the non-selective a receptors was rat cerebral cortex. The origin of the (σ1 and σ2 receptors were Jurkat cells and rat cerebral cortex, respectively.
(§2) Affinity for the receptors was determined by competitive displacement of specific ligands (8 nM of [^3H] 1,3-di(2-tolyl)guanidine for non-selective σ, 8 nM of [^3H](+)pentazocine for σ1 and 5 nM of [^3H]1,3-di(2-tolyl)guanidine for σ2) by test compounds. Nonspecific binding was determined by addition of an excess of an unlabelled binder (10 μM haloperidol).
(§3) The results are expressed as a percent inhibition of control specific binding (100−((measured specific binding/control specific binding)×100)) obtained in the presence of test compound (10 μM) as shown in Table 1. In addition, Table 1 includes data for the selected compounds from the voltage-clamp in Xenopus laevis oocytes assay.

σ2 receptors = molecular target: T3, σ2 receptors (Rattus norvegicus, UniProt Q5U3Y7); assay: Sigma receptor binding assay, σ2 ([3H]1,3-di(2-tolyl)guanidine displacement); conditions: test compound 10 μM; rat cerebral cortex
T3 construct: The origin of the (σ1 and σ2 receptors were Jurkat cells and rat cerebral cortex, respectively); from tissue; host or cells: rat cerebral cortex
T3 sequence (Q5U3Y7 1-176): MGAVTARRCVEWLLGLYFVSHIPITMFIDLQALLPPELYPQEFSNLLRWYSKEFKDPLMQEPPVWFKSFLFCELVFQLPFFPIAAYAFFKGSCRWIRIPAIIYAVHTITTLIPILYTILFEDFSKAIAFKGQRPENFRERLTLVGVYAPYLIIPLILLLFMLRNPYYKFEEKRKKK
Experimental: as §1, §2, §3

[1] = system: non-selective σ receptors; assay: Sigma receptor binding assay, non-selective σ ([3H]1,3-di(2-tolyl)guanidine displacement); conditions: test compound 10 μM; rat cerebral cortex
Experimental: as §1, §2, §3

[2] = system: formalin-induced nociceptive behavior; assay: Formalin-induced persistent nociceptive behavior assay; assay type: in vivo; conditions: mice; 10 mg/kg subcutaneously 10 minutes prior to formalin; phase 2, 20-45 minutes post formalin
Experimental: Nociception was assessed using the formalin test. The mice were placed in open plexiglass observation chambers for 30 minutes to allow them to acclimate to their surroundings: then they were removed for formalin administration. Mice were gently restrained while the dorsum of the hind paw was injected with 20 μL of 2.5% formalin into the plantar surface of the right hind paw with a 30-gauge needle. The animals were returned to the chambers and nociceptive behavior was observed immediately after formalin injection. Mirrors were placed in each chamber to enable unhindered observation. Nociceptive behavior was quantified as the time licking the injected paw for continuous 5 minutes (phase 1) and 20-45 minutes (phase 2), following formalin injection. Formalin-induced flinching/licking behavior was biphasic. The initial acute phase (phase 1.0-5 minutes) was followed by a relatively short quiescent period, which was then followed by a prolonged tonic response (phase 2, 20-45 minutes).

sensory gating T:C ratio = assay: Sensory gating deficit in DBA/2 mice (N40 gating) assay; assay type: in vivo; conditions: dose 0.01 μmol/kg
From the text: Sensory gating is a basic central nervous system function that facilitates attending to important stimuli, and ignoring irrelevant background noise. A practical example of sensory gating is the ability to follow a conversation at a loud party. An experimental measure of sensory gating is the suppression of brainwave (evoked potential) responding to repetitive auditory stimuli. Schizophrenic patients can not suppress responding to repetitive stimuli, and are therefore considered to have sensory gating deficiencies.
DBA/2 mice (20-25 g, 8-10 week, Harlan) were used for gating experiments and handled in accordance with approved Association for Assessment and Accreditation of Laboratory Animal Care procedures. Mice were given food and water ad libitum and maintained on a 12-hour light/dark cycle (lights on at 0600 hours).
The surgical techniques employed were similar to those previously described (Connolly P M, et al. (2003) Brain Res 992(1):85-95). […]
To obtain EEG and evoked potentials (EPs), unanesthetized mice were recorded in acoustically isolated chambers (Med Associates). EEG biosignals were recorded from freely moving mice using flexible cable tethers and electrical swivels (Plastics One) and amplified with differential AC amplifiers (Grass Instrument Division, Astro-Med, West Warwick, R.I. USA). […]

α7 NNRs = α7 NNRs (Homo sapiens, UniProt P36544); conditions: IMR-32 cells
Chain of α7 NNRs (P36544 23-502): as the sequence (P36544 23-502) above
Experimental: Although cell types such as IMR-32 neuroblastoma and neurons are known to contain several nicotinic receptor subunits, α7 selective agonists in the present assay selectively stimulate calcium responses only in the presence of PAMs. Any suitable selective α7 agonist can be used.
IMR-32 neuroblastoma cells (ATCC) were grown to confluency in 162 cm^2 tissue culture flasks in minimum essential media supplemented with 10% fetal bovine serum and 1 mM sodium pyruvate, 0.1 mM non-essential amino acids and 1% antibiotic-antimycotic. […]
Calcium flux was measured using a calcium-3 assay kit (Molecular Devices, Sunnyvale, Calif.) or Fluo-4 (Invitrogen, Carlsbad, Calif.). […] Fluorescence measurements were read simultaneously from all the wells by a Fluorometric Imaging Plate Reader (FLIPR) at an excitation wavelength of 480 nm and an emission wavelength of 520 nm. Baseline fluorescence was measured for the first 10 seconds at which 50 μL of 3× concentrations of modulator/test compounds were added to the cell plate and incubated for three to five minutes. The fluorescence intensity was captured every second for the first 1 minute followed by every 2-5 seconds for an additional two to four minutes. This procedure was followed by 50 μL of 4× concentration of agonist and readings were taken for a period of three to five minutes as described above. […]

Row | SMILES | Voltage-Clamp in Xenopus laevis Oocytes % max (degree of normalized potentiation) (human α7 NNR) | EC50 (human α7 NNR) | inhibition at 10 µM (σ1 receptors) | inhibition at 10 µM (σ2 receptors) | % Inhibition of Binding at 10 μM σ [1] | reduction in licking duration (nociceptive behavior), phase 2 [2] | reduction of T:C (test:conditioned) ratios compared to vehicle (sensory gating T:C ratio) | calcium response to agonist in the presence of an allosteric modulator (α7 NNRs)
1 | O=C(NCc1cccc(-n2cccn2)c1)c1ccc(SC(F)(F)F)cc1 [Example 12, N-[3-(1H-pyrazol-1-yl)benzyl]-4-[(trifluoromethyl)thio]benzamide] | 61% | 3700 nM |  |  |  |  |  | 
2 | CN(C)c1ccc(CNC(=O)c2ccc(SC(F)(F)F)cc2)cc1 [Example 17, N-[4-(dimethylamino)benzyl]-4-[(trifluoromethyl)thio]benzamide] | 94% | 180 nM | 8% | -1% |  |  |  | 
3 | CNc1ccc(CNC(=O)c2ccc(SC(F)(F)F)cc2)cc1 [Example 20, N-[4-(methylamino)benzyl]-4-[(trifluoromethyl)thio]benzamide] | 99% | 97 nM |  |  | 39% | 68% | 23.7±8.9% | 
4 | CCN1C[C@]2(COC(=O)c3ccccc3N3C(=O)C[C@H](C)C3=O)CC[C@H](OC)[C@@]34[C@@H]5C[C@H]6[C@H](OC)[C@@H]5[C@](O)(C[C@@H]6OC)[C@@](O)([C@@H](OC)[C@H]23)[C@@H]14 [methyllycaconitine] |  |  |  |  |  |  |  | abolished the response

More lines, main results first:

Row | Voltage-Clamp in Xenopus laevis Oocytes % max (degree of normalized potentiation) (human α7 NNR) | EC50 (human α7 NNR) | inhibition at 10 µM (σ1 receptors) | inhibition at 10 µM (σ2 receptors) | SMILES | % Inhibition of Binding at 10 μM σ [1] | reduction in licking duration (nociceptive behavior), phase 2 [2] | reduction of T:C (test:conditioned) ratios compared to vehicle (sensory gating T:C ratio) | calcium response to agonist in the presence of an allosteric modulator (α7 NNRs)
5 | 120% | 5400 nM |  |  | Nc1ccc(CNC(=O)c2ccc(SC(F)(F)F)cc2)cc1 [Example 19, N-(4-aminobenzyl)-4-[(trifluoromethyl)thio]benzamide] | 6% |  |  | 
6 | 115% | 1200 nM | 21% | -4% | CNc1ccc(CNC(=O)c2ccc(SC(F)F)cc2)cc1 [Example 22, 4-[(difluoromethyl)thio]-N-[4-(methylamino)benzyl]benzamide] |  |  |  | 
7 | 2% | > 10000 nM | 84% | 34% | O=C(Cc1ccc(NCC2CC2)cc1)Nc1ccc(SC(F)F)cc1 [Example 43, 2-{4-[(cyclopropylmethyl)amino]phenyl}-N-{4-[(difluoromethyl)thio]phenyl}acetamide] |  |  |  | 
